Earlier results as cited in patent publication EP4729597A1, “LOW-ALCOHOL BEER-LIKE BEVERAGE AND METHOD FOR PRODUCING LOW-ALCOHOL BEER-LIKE BEVERAGE” (Asahi Group Holdings, Ltd., priority 2023, dated 2024).
Where two headings read alike, the source gives them in different places.

[1] = Table 1, octanol/water partition coefficient

Structure (SMILES) | LogP [1] | LogP (Table 3) | LogP
CCCCCCCC(=O)OCC [Ethyl octanoate] | 3.8 | 3.8 | 
CC(C)=CCC/C(C)=C/CO [Geraniol] | 3.6 | 3.6 | 
CC(=O)OCCC(C)C [Isoamyl acetate] |  | 2.3 | 2.3
CC(=O)/C=C/C1=C(C)CCCC1(C)C [β-ionone] | 4.0 |  | 

Other lines, results leading:

LogP [1] | LogP (Table 3) | LogP | Structure (SMILES)
3.9 | 3.9 |  | CC(C)=CCCC(C)CCO (centres unmarked) [Citronellol]
4.3 | 4.3 |  | C=CC(=C)CCC=C(C)C [Myrcene]
